The values that follow come from patent US20130189358A1, “SAXAGLIPTIN PHARMACEUTICAL FORMULATIONS” (priority 2012, published 2013).

This data set in a line: Impurity levels 30 days after tablet manufacture (storage stability). The settings on record: 30 days after manufacture, storage at RT (15-29° C.) and NMT 67% RH; % wt impurity. Type of data set: physicochemical. How it is done:
As used herein, unless indicated otherwise, the amount of saxagliptin cyclic amidine in the dosage forms following manufacture of the pharmaceutical dosage forms are measured following storage for 30 days at room temperature conditions (typically manufacture (following storage at room temperature (i.e. typically a temperature of between 15-29° C.), and at a relative humidity of not more than 67%.
Measurements of % wt impurities herein (oxamidine, cyclic amidine, etc) are taken 30 days after manufacture of the formulations [storage at ambient conditions, i.e. room temperature (RT) of between 15-29° C. and not more than 67% relative humidity (RH)].
Formulation #1 Excluding Cosmetic Coating—Analytical Data (30 Days after Tablet Manufacture)

Structures can show the parent of a compound that is named as a salt.

In the case of `N#C[C@@H]1C[C@@H]2C[C@@H]2N1C(=O)[C@@H](N)C12CC3CC(CC(O)(C3)C1)C2` [Saxagliptin HCl, (1S,3S,5S)-2-((2S)-2-amino-2-(3-hydroxyadamantan-1-yl)-acetyl)-2-azabicyclo[3.1.0]hexane-3-carbonitrile], the “Cyclic Amidine level” value is less than 0.03%, the “Greatest Unknown Impurity level” value was determined as 0.19%, the Oxamidine level is less than 0.03% and the “Total Impurity level” value turned out to be 0.23%.
